Experiment [1] addresses T1, Neutravidin (Gallus gallus, UniProt P02701). Nature of the experiment: Primary phagemid binding ELISA, Neutravidin control wells (TCR-1 panning). As to conditions: ELISA signal; Neutravidin alone. (In general: In an ELISA, binding on a coated surface is turned into a signal by an enzyme label.)
Text: (§2) The next day the deep well plates were centrifuged to separate the soluble phagemid from the E. coli cells. […] After binding at 4 degrees the plates were washed, and specifically bound phage were detected by anti-m13 HRP conjugated antibodies using standard TMB-based chromogenic ELISA procedures. Daughter plates or individual wells were subjected to standard DNA sequencing for clonal peptide sequence identification.
Experiment [2] has as its system TCR-1. As to the kind of experiment: Secondary pMHC phagemid competition ELISA on TCR-1. In kind it is binding. To be noted: for Secondary pMHC phagemid competition ELISA binding with 200 nM pMHC competitor / Secondary pMHC phagemid competition ELISA IC-3 binding no pMHC competitor: ELISA signal; for Secondary pMHC phagemid competition ELISA binding with 200 nM pMHC competitor: 200 nM Human MAGE-A3 pMHC competitor; for % binding with pMHC competition: TCR-1, 200 nM pMHC competitor relative to no competitor.
Experimental: Human MAGE-A3 pMHC was added to wells to block the active binding site. After a brief incubation period phagemid supernatants were added to both sets of wells. Following further incubation at 4 degrees the plates were washed and specifically bound phage were detected by anti-m13 HRP conjugated antibodies using standard TMB-based chromogenic ELISA procedures. Phagemid clones binding within the antigenic binding pocket would be blocked and be identified by a decreased ELISA signal, compared to a well lacking previous pMHC blockade.

Experiment [3] relates to TCR-1. Nature of the experiment: Primary phagemid binding ELISA, TCR-1 wells. As to conditions: ELISA signal; phagemid supernatant on Neutravidin captured biotin-conjugated TCR-1.
Text: as §2
In experiment [4] the test system is TCR-8. Nature of the experiment: Primary phagemid binding ELISA, TCR-8 wells. To be noted: ELISA signal; phagemid supernatant on Neutravidin captured biotin-conjugated TCR-8.
Experiment [5] addresses T1, Neutravidin. Nature of the experiment: Primary phagemid binding ELISA, Neutravidin control wells (TCR-8 panning). To be noted: ELISA signal; Neutravidin alone. The method, then:
The next day the deep well plates were centrifuged to separate the soluble phagemid from the E. coli cells. The phagemid containing supernatants were then combined with PBS-Tween 20 (0.05%)+BSA (1%) blocking buffer and incubated in ELISA wells containing Neutravidin captured biotin-conjugated TCR-8 (Table 1) or Neutravidin alone. After binding at 4 degrees the plates were washed and specifically bound phage were detected by anti-m13 HRP conjugated antibodies using standard TMB-based chromogenic ELISA procedures. Daughter plates or individual wells were subjected to standard DNA sequencing for clonal peptide sequence identification.

For experiment [6], the system named is TCR-8. Nature of the experiment: Secondary pMHC phagemid competition ELISA on TCR-8. In kind it is binding.
Experimental: TCR-8 immobilized and blocked 96-well ELISA plates similar to above were prepared. Tetrameric human MAGE-A3 pMHC was first added to wells to block the active binding site. After a brief incubation period (30-60 minutes) phagemid supernatants were added to both sets of wells. Following further incubation at 4 degrees the plates were washed and specifically bound phage were detected by anti-m13 HRP conjugated antibodies using standard TMB-based chromogenic ELISA procedures.
For experiment [7], the system named is TCR-1, TCR-8, TCR-9, TCR-10. As to the kind of experiment: BLI binding specificity of Peptide-5 against TCR-1 and closely related TCRs. As to conditions: TCRs from 50 nM or at 100 uM on saturating Peptide-5. The method, then:
The other TCRS chosen are closely related to the target TCR-1. BLI based kinetic binding of TCR-land closely related TCRS, TCR-8, TCR-9, and TCR-10 to inhibitory peptides was measured using a ForteBio Octet RED96 instrument. Biotinylated peptides were first captured on streptavidin biosensors. Sensors were quenched using excess biocytin and then baselined in buffer. TCRs were titrated in a 2-fold dilution series starting from 50 nM and were associated onto the inhibitory peptide loaded biosensor. Association signal was monitored in real-time. Biosensors were then transferred to buffer and the dissociation of TCR was measured in real-time. Response data was baseline corrected and fit to a 1:1 binding model used to calculate association and dissociation rates.
BLI based kinetic binding of TCR-land closely related TCRS, TCR-8, TCR-9, and TCR-10 to inhibitory peptides was measured using a ForteBio Octet RED96 instrument. Biotinylated peptides were first captured on streptavidin biosensors until signal saturation. Sensors were quenched using excess biocytin and then baselined in buffer. TCRs were associated 100 uM onto the inhibitory peptide loaded biosensor. Association signal was monitored in real-time. Biosensors were then transferred to buffer and the dissociation of TCR was measured in real-time. […]
For orientation: In BLI a coated tip is dipped into the sample, and binding shifts an interference pattern.

The target of experiment [8] is TCR-1 binding to MAGE-A3 pMHC. Nature of the experiment: Peptide inhibition of TCR-1 kinetic binding to MAGE-A3 pMHC (BLI). As to conditions: 50 nM TCR-1; result in words. The method, then: Zero concentration of inhibitory peptide (100% binding) or zero concentration of TCR (0% binding) was used as a control. Biotinylated pMHC was captured on streptavidin biosensors. Sensors were quenched using excess biocytin and then baselined in buffer. Inhibitory peptide and TCR mixtures were associated onto the pMHC loaded biosensor. Association signal was monitored in real-time. Biosensors were then transferred to buffer and the dissociation signal was measured in real-time.
Zero concentration of inhibitory peptide (100% binding) or zero concentration of TCR (0% binding) was used as a control. Biotinylated pMHC was captured on streptavidin biosensors. Sensors were quenched using excess biocytin and then baselined in buffer. […] Association signal was monitored in real-time. Biosensors were then transferred to buffer and the dissociation signal was measured in real-time. Data was baseline corrected. The maximal association signal was normalized from 100% (0 uM inhibitory peptide control) to 0% (0 uM TCR control) and plotted versus log-scale inhibitory peptide concentration. […]
Inhibitory peptide titrated in a 2-fold dilution series starting from 100 uM was first incubated with a constant concentration of 50 nM TCR. […] Association signal was monitored in real-time. Biosensors were then transferred to buffer and the dissociation signal was measured in real-time. […]

Experiment [9] deals with TCR-1 binding to MAGE-A3 pMHC. As to the kind of experiment: Peptide inhibition of TCR-1 binding to MAGE-A3 pMHC in competitive binding ELISA. As to conditions: 1 nM TCR-1, result in words. The method, then:
(§1) Peptide inhibition in competitive binding ELISAs: High binding plates were first coated with neutravidin. Neutravidin coated plates were blocked using bovine serum albumin in buffer and washed. Biotinylated pMHC at a single concentration of 100 nM was captured on neutravidin coated plates, quenched using excess biocytin, and washed. […] Inhibitory peptide and TCR mixtures were then added to the pMHC captured plates for 30 min and washed. […] Plates were then developed using tetramethylbenzidine (TMB) for 5-10 min and stopped using acid.
as §1, with “High” for “Peptide inhibition in competitive binding ELISAs: High”, “acid. Absorbance at 450 nm was measured for each plate and plotted versus log-scale inhibitory peptide concentration.” for “acid.”
High binding plates were first coated with neutravidin. Neutravidin coated plates were blocked using bovine serum albumin in buffer and washed. […] Absorbance at 450 nm was measured for each plate and plotted versus log-scale inhibitory peptide concentration.

Experiment [10] has as its target TCR-1. As to the kind of experiment: ELISA-based binding of TCR-1 to synthetic peptides. To be noted: result in words; numbers are in Table 3, not printed here. The method, then: ELISA-based binding: High binding plates were first coated with neutravidin. Neutravidin coated plates were blocked using bovine serum albumin in buffer and washed. Biotinylated peptide or pMHC at a single concentration of 100 nM was captured on neutravidin coated plates, quenched using excess biocytin, and washed. […] TCR was then titrated onto the peptide or pMHC captured plates for 1 hour and washed. […] Plates were then developed using tetramethylbenzidine (TMB) for 5-10 min and stopped using acid.
High binding plates were first coated with neutravidin. Neutravidin coated plates were blocked using bovine serum albumin in buffer and washed. Biotinylated peptide at a single concentration of 100 nM was captured on neutravidin coated plates, quenched using excess biocytin, and washed. […] TCR was then titrated onto the peptide captured plates for 1 hour and washed. […] Plates were then developed using tetramethylbenzidine (TMB) for 5-10 min and stopped using acid. Absorbance at 450 nm was measured for each plate and plotted versus log-scale TCR concentration. […]
High binding plates were first coated with neutravidin. Neutravidin coated plates were blocked using bovine serum albumin in buffer and washed. […] Absorbance at 450 nm was measured for each plate and plotted versus log-scale TCR concentration.

Experiment [11] deals with T1, Neutravidin. As to the kind of experiment: primary phagemid binding ELISA, Neutravidin alone.

Ends that are not written are not given here.

T1 sequence (P02701 25-152): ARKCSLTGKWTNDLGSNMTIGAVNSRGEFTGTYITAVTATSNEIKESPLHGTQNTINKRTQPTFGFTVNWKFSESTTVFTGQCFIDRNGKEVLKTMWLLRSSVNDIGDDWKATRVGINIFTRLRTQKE
Sequence of TCR-1 (as listed by the source): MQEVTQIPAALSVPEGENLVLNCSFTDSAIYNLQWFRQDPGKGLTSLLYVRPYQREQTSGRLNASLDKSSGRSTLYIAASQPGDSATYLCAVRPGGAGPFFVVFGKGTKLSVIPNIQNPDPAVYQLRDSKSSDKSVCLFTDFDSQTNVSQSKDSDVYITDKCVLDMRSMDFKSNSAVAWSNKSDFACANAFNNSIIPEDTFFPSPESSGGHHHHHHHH
Sequence of TCR-1 (as listed by the source): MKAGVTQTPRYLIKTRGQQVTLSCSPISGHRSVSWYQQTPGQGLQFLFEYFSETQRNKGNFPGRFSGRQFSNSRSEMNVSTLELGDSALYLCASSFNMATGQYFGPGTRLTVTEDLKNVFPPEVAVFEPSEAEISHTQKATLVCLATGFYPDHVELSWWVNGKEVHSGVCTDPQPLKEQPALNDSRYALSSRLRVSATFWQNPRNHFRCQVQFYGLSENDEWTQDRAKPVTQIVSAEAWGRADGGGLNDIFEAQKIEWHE
Sequence of TCR-8 (as listed by the source): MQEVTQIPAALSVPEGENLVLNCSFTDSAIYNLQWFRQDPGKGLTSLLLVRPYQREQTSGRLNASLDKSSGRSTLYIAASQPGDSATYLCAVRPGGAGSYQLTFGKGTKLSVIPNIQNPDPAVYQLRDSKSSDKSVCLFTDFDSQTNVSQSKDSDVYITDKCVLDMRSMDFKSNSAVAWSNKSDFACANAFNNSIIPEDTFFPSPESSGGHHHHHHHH
Sequence of TCR-8 (as listed by the source): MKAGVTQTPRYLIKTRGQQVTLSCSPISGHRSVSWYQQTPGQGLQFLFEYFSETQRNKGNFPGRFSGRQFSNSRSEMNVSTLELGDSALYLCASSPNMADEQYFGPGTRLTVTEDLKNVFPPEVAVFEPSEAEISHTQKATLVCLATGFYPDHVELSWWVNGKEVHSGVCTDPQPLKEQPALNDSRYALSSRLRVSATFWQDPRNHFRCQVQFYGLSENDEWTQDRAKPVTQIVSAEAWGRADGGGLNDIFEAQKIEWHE

As for GGDVRCFMRMMECVLL [J289_D10], in the experiment with Neutravidin [1], the “Primary Phagemid binding ELISA Neutravidin control wells” value is 0.120. In the experiment with TCR-1 [2], the “Secondary pMHC phagemid competition ELISA binding with 200 nM pMHC competitor” value is reported as 0.132, the “Secondary pMHC phagemid competition ELISA IC-3 binding no pMHC competitor” value was 1.881 and the “% binding with pMHC competition” value amounted to 7%.

Take GGLADYCEHPMCYWYS [J250_G02]: the “Primary Phagemid binding ELISA Neutravidin control wells” value with Neutravidin [1] turned out to be 0.152. In the experiment with TCR-1 [3], the “Primary Phagemid binding ELISA TCR-1 wells” value is 3.122.

GGLADYCEHPMCYWYS [J272_B10]: the “Primary Phagemid binding ELISA Neutravidin control wells” value in the experiment with Neutravidin [1] turned out to be 0.068. Besides, in the experiment on TCR-1 [2], the “Secondary pMHC phagemid competition ELISA binding with 200 nM pMHC competitor” value came to 0.075, the “Secondary pMHC phagemid competition ELISA IC-3 binding no pMHC competitor” value came out at 1.683 and the “% binding with pMHC competition” value was 4%.

With “GGVICENWQGDRVCWF [J308_A03] (phagemid-displayed)”, the “Primary phagemid binding ELISA TCR-8 wells” value with TCR-8 [4] came out at 3.157. In addition, in the experiment with Neutravidin [5], the “Primary phagemid binding ELISA Netravidin Control wells” value is reported as 0.132.

Consider “GGVICENWQGDRVCWF [J308_A09] (phagemid-displayed)”, for which the “Primary phagemid binding ELISA TCR-8 wells” value with TCR-8 [4] is 3.065. Besides, the “Secondary pMHC phagemid competition ELISA binding with 100 nM pMHC tetramer competitor” value in the experiment on TCR-8 [6] (ELISA signal, 100 nM tetrameric human MAGE-A3 pMHC) was determined as 0.570. Besides, the “Secondary pMHC phagemid competition ELISA TCR-8 binding no pMHC competitor” value with TCR-8 [6] (ELISA signal, no pMHC competitor) stood at 1.877. In the experiment with TCR-8 [6] (TCR-8, 100 nM pMHC tetramer competitor relative to no competitor), the “% binding with pMHC competition” value stood at 30%. Also, the “Primary phagemid binding ELISA Netravidin Control wells” value with Neutravidin [5] was 0.236.

For the molecule “GGVSCKDVYDEAFCWT [Peptide-5, synthesized with a biotinylated linker and C-terminal amidation]”, in experiment [7], the “binding specificity for TCR-1 against closely related TCRs” value is listed as “selective for TCR-1”. Also, the “IC50, inhibition of TCR-1 binding to MAGE-A3 pMHC” value in [8] is recorded as “lowest”.

Take “Peptide-24: Peptide-5 alanine scan peptide, substitution of lysine at the 6th amino acid position (GGVSCADVYDEAFCWT-NH2; not fully specified; cysteine pairing not given here; also: biotinylated linker, place not given here)”: the “competitive binding IC50” value in experiment [9] is given as “mild improvement”. For the same molecule, on TCR-1 [10], the “binding EC50 (TCR-1 binding to peptide by ELISA)” value was “mild improvements”.

B1: J289_D10 (peptide)
peptide: GGDVRCFMRMMECVLL
Turning to B1, in the experiment with Neutravidin [11], the ELISA signal (Neutravidin control wells) amounted to 0.12.
